Source: PubChem BioAssay (NCI)
Values joined by “and” are separate entries in the source; they are usually repeats but may differ in a detail not shown here. Equal values may be shown once.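 Following 48 hours of exposure in 96-well plates, responses at five concentrations were used to interpolate endpoints linearly. Here, GI50 denotes the concentration required for 50% inhibition of growth. At the TGI there is no net growth.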

Key:
Experiment in all cases: NCI tumour cell line growth inhibition, 48 h
786-0 renal = tested on: 786-0 renal
A498 renal = tested on: A498 renal
A549 NSCLC = tested on: A549 NSCLC
ACHN renal = tested on: ACHN renal
BT-549 breast = tested on: BT-549 breast
CCRF-CEM leukemia = tested on: CCRF-CEM leukemia
COLO 205 colon = tested on: COLO 205 colon
DLD-1 colon = tested on: DLD-1 colon
DMS 114 small cell lung = tested on: DMS 114 small cell lung
DMS 273 small cell lung = tested on: DMS 273 small cell lung
DU-145 prostate = tested on: DU-145 prostate
EKVX NSCLC = tested on: EKVX NSCLC
HCC-2998 colon = tested on: HCC-2998 colon
HCT-116 colon = tested on: HCT-116 colon
HCT-15 colon = tested on: HCT-15 colon
HL-60(TB) leukemia = tested on: HL-60(TB) leukemia
HOP-18 NSCLC = tested on: HOP-18 NSCLC
HOP-92 NSCLC = tested on: HOP-92 NSCLC
HS 578T breast = tested on: HS 578T breast
HT29 colon = tested on: HT29 colon
IGROV1 ovarian = tested on: IGROV1 ovarian
K-562 leukemia = tested on: K-562 leukemia
KM12 colon = tested on: KM12 colon
KM20L2 colon = tested on: KM20L2 colon
LOX IMVI melanoma = tested on: LOX IMVI melanoma
M14 melanoma = tested on: M14 melanoma
M19-MEL melanoma = tested on: M19-MEL melanoma
MALME-3M melanoma = tested on: MALME-3M melanoma
MCF7 breast = tested on: MCF7 breast
MDA-MB-231 breast = tested on: MDA-MB-231 breast
MDA-MB-435 = tested on: MDA-MB-435
MDA-N = tested on: MDA-N
MOLT-4 leukemia = tested on: MOLT-4 leukemia
NCI-H226 lung = tested on: NCI-H226 lung
NCI-H460 lung = tested on: NCI-H460 lung
NCI/ADR-RES ovarian = tested on: NCI/ADR-RES ovarian
OVCAR-3 ovarian = tested on: OVCAR-3 ovarian
OVCAR-4 ovarian = tested on: OVCAR-4 ovarian
OVCAR-5 ovarian = tested on: OVCAR-5 ovarian
P388 leukemia = tested on: P388 leukemia
P388/ADR leukemia = tested on: P388/ADR leukemia
PC-3 prostate = tested on: PC-3 prostate
RXF 393 renal = tested on: RXF 393 renal
SF-268 CNS = tested on: SF-268 CNS
SF-295 CNS = tested on: SF-295 CNS
SK-MEL-2 melanoma = tested on: SK-MEL-2 melanoma
SK-MEL-28 melanoma = tested on: SK-MEL-28 melanoma
SK-OV-3 ovarian = tested on: SK-OV-3 ovarian
SN12C renal = tested on: SN12C renal
SN12K1 renal = tested on: SN12K1 renal
SNB-19 CNS = tested on: SNB-19 CNS
SNB-75 CNS = tested on: SNB-75 CNS
SNB-78 CNS = tested on: SNB-78 CNS
SR leukemia = tested on: SR leukemia
SW-620 colon = tested on: SW-620 colon
T-47D breast = tested on: T-47D breast
TK-10 renal = tested on: TK-10 renal
U251 CNS = tested on: U251 CNS
UACC-257 melanoma = tested on: UACC-257 melanoma
XF 498 CNS = tested on: XF 498 CNS

SMILES: COc1cc(NCc2ccc3nc(N)nc(N)c3c2C)cc(OC)c1OC (tested in a mixture with another compound)
- GI50 (786-0 renal): 0.0145 µM and 0.025 µM
- TGI (A498 renal): 49.5 µM
- GI50 (A549 NSCLC): 0.000138 µM
- TGI (A549 NSCLC): 21.9 µM
- GI50 (ACHN renal): 0.0736 µM and 0.025 µM
- TGI (ACHN renal): 32.8 µM
- GI50 (BT-549 breast): 0.0611 µM
- TGI (BT-549 breast): 34.2 µM and 45.4 µM
- TGI (CCRF-CEM leukemia): 86 µM
- TGI (COLO 205 colon): 45.1 µM
- TGI (DLD-1 colon): 95.6 µM
- TGI (DMS 114 small cell lung): 37.7 µM
- TGI (DMS 273 small cell lung): 12.3 µM
- GI50 (DU-145 prostate): 0.172 µM and 0.025 µM
- TGI (DU-145 prostate): 38.2 µM
- TGI (EKVX NSCLC): 26.6 µM
- GI50 (HCC-2998 colon): 0.00957 µM
- GI50 (HCT-116 colon): 0.000185 µM
- TGI (HCT-116 colon): 33 µM
- GI50 (HCT-15 colon): 0.000451 µM
- TGI (HCT-15 colon): 51.7 µM
- GI50 (HL-60(TB) leukemia): 0.000746 µM
- TGI (HL-60(TB) leukemia): 29.4 µM and 26.3 µM
- TGI (HOP-18 NSCLC): 146 µM
- GI50 (HOP-92 NSCLC): 0.0233 µM
- GI50 (HS 578T breast): 29 µM and 8.3 µM
- TGI (HT29 colon): 41.9 µM
- TGI (IGROV1 ovarian): 68.6 µM
- GI50 (K-562 leukemia): 0.000159 µM
- TGI (K-562 leukemia): 46.3 µM
- TGI (KM12 colon): 46.6 µM
- TGI (KM20L2 colon): 48.5 µM
- GI50 (LOX IMVI melanoma): 0.000242 µM
- TGI (LOX IMVI melanoma): 38.3 µM
- GI50 (M14 melanoma): 0.0222 µM and 0.025 µM
- TGI (M19-MEL melanoma): 52.5 µM
- TGI (MALME-3M melanoma): 30 µM and 49.4 µM
- TGI (MCF7 breast): 28.7 µM
- GI50 (MDA-MB-231 breast): 0.0893 µM
- TGI (MDA-MB-231 breast): 55.2 µM
- GI50 (MDA-MB-435): 0.000388 µM
- TGI (MDA-MB-435): 50.1 µM
- GI50 (MDA-N): 0.025 µM
- TGI (MDA-N): 44.9 µM
- TGI (MOLT-4 leukemia): 46.7 µM
- GI50 (NCI-H226 lung): 0.0892 µM
- TGI (NCI-H226 lung): 52.8 µM
- GI50 (NCI-H460 lung): 0.000169 µM
- TGI (NCI-H460 lung): 34.8 µM
- TGI (NCI/ADR-RES ovarian): 229 µM
- TGI (OVCAR-3 ovarian): 77.8 µM
- GI50 (OVCAR-4 ovarian): 0.15 µM
- TGI (OVCAR-4 ovarian): 99.8 µM
- GI50 (OVCAR-5 ovarian): 0.0287 µM
- TGI (OVCAR-5 ovarian): 35.9 µM
- TGI (P388 leukemia): 10 µM
- TGI (P388/ADR leukemia): 12.7 µM
- TGI (PC-3 prostate): 37.4 µM
- TGI (RXF 393 renal): 27.5 µM
- TGI (SF-268 CNS): 66.8 µM
- GI50 (SF-295 CNS): 0.000372 µM
- GI50 (SK-MEL-2 melanoma): 0.339 µM
- TGI (SK-MEL-2 melanoma): 42.3 µM and 55.1 µM
- TGI (SK-MEL-28 melanoma): 50.6 µM
- GI50 (SK-OV-3 ovarian): 0.0189 µM
- GI50 (SN12C renal): 0.000457 µM
- TGI (SN12K1 renal): 36.6 µM
- TGI (SNB-19 CNS): 113 µM
- TGI (SNB-75 CNS): 52.7 µM
- TGI (SNB-78 CNS): 116 µM
- TGI (SR leukemia): > 44.4 µM
- GI50 (SW-620 colon): 0.000285 µM
- TGI (SW-620 colon): 16.4 µM and 50.9 µM
- TGI (T-47D breast): 65.7 µM
- GI50 (TK-10 renal): 23.2 µM and 4.8 µM
- TGI (TK-10 renal): 47.5 µM
- GI50 (U251 CNS): 0.00227 µM and 0.016 µM
- TGI (U251 CNS): 88.5 µM and 48.7 µM
- GI50 (UACC-257 melanoma): 0.00993 µM
- TGI (UACC-257 melanoma): 48.7 µM
- TGI (XF 498 CNS): 8.19 µM
